This note sets out measurements from PMC5291322, “Development of Cell‐Permeable, Non‐Helical Constrained Peptides to Target a Key Protein–Protein Interaction in Ovarian Cancer” (Angewandte Chemie (International Ed. in English), 2016).

For one data set, the target named is T1, mImportin α1 ΔIBB (Mus musculus, UniProt P52293).
T1 construct: made in house; host or cells: E. coli BL21 (DE3) CodonPlus-RIL
In words: Direct fluorescence polarisation (FP) binding assay. To be noted: 60 nM TAMRA-labelled peptide, 15-point 2.0-fold serial dilutions of mImportin α1 ΔIBB, 20 mM HEPES pH 8, 200 mM NaCl, 15 min at room temperature, ex 540/em 590 nm, one-site model, triplicates, read-out: Kd, direct FP assay binding affinity. As for the experimental part: The unconstrained peptides Pep1 and Pep2, as well as four constrained peptides, were synthesized. Their binding affinities for mImportin α1 ΔIBB were evaluated in fluorescence polarization assays (Figure 5 C). […]
Direct Fluorescence Polarisation Assay
Dissociation constants (Kd) for the interaction of TAMRA-5-labelled stapled peptides with mImportin α1 ΔIBB were determined by direct fluorescence polarisation (FP) measurement. TAMRA-5 belongs to the family of rhodamine dyes and has been used extensively for the study of PPIs and DNA-protein interactions by FP assays.[31-32] The mImportin α1 ΔIBB isoform was used since it is well characterised and has been used previously.[33] A one-site binding model was assumed with mImportin α1. mImportin α1 ΔIBB protein was purified in FP buffer (20 mM HEPES (pH 8), 200 mM NaCl) and 1 mM stock solutions of peptides were made up in FP buffer with 3 % v/v DMSO. Accurate mImportin α1 ΔIBB and stapled peptide concentrations were determined by amino acid analysis (PNAC facilities, Department of Biochemistry, University of Cambridge). 15-point dose-response curves were constructed using 2.0-fold serial dilutions of mImportin α1 ΔIBB in a mixture with a final concentration of 60 nM TAMRA-labelled peptide. 20 μL reaction volumes were pipetted into […] black polystyrene assay plates (Corning 384 Well Low Flange Black Flat
On the technique in general: Fluorescence polarisation rises when a labelled molecule tumbles more slowly, as on binding a larger partner.

A further data set deals with JHOC9 cells. The data set can be described thus: Cell permeability assay, live-cell confocal fluorescence microscopy. Particulars: 10 μM TAMRA-labelled peptide in medium, 2 h incubation, Hoechst 33342 in the final 30 min, PBS wash, TAMRA fluorescence read-out, qualitative. In kind it is cell-based. The text has this:
Live‐cell fluorescence microscopy studies were undertaken to assess the cell permeability of the synthesized TAMRA‐labelled linear and constrained peptides (Figure 7).
Figure 7 Cell‐permeability studies for the linear and constrained peptides using JHOC9 cells. Images were taken on a Leica tandem confocal microscope using a 40 X objective.
HEK293T cells were cultivated in Dulbecco’s Modified Eagle medium (DMEM) (1X) supplemented with 5 % foetal bovine serum (FBS) (Invitrogen) and 0.5 % penicillin/streptomycin (P/S). CCC cell lines PEO1, JHOC5, JHOC7, JHOC9, OVISE, SKOV3 and Normal Ovarian Surface Epithelial (IOSE) cells were grown in RPMI 1640 medium (1X) supplemented with 10 % FBS and 1 % P/S. All cell lines were maintained at 37 °C in 5 % CO2 and were mycoplasma tested on a regular basis (Biorepository Core, CRUK CI, Cambridge). Cell counts were conducted using the Vi-CELL Cell Viability Analyzer. […]
Cell permeability assay and confocal microscopy
Cells were grown in chambered coverslips (μ–Slide 8 Well ibiTreat, Ibidi) for live-cell imaging. When the desired degree of confluency was reached, the medium was replaced with 10 μM solutions of constrained peptides in medium. For live-cell imaging, cells were incubated with the constrained peptide solutions for 2 h and during the final 30 min, Hoechst stain 33342 (1 μM, Thermo Fisher Scientific) was added. Cells were washed with PBS before live-cell imaging. Fresh medium was added and cells were imaged live using a Leica Tandem confocal microscope. Images were generated as a maximum intensity projection of five z-stacked […]
Aldrich, Mission RNAi, TRC2-pLKO-puro Vector) were used. All plasmids were confirmed by restriction digest and agarose gel electrophoresis.
For each transfection sample 16 μg transfer vector, 10.4 μg pMDL/pRRE, 4 μg pRSV-Rev and 5.6 μg pVSV-G were used. Lentiviruses were produced in the HEK293T packaging cell line. The day before transfection, 16 x 10^6 HEK293T cells were plated in […] (Corning) using Opti-MEM reduced-serum medium (30 mL, 1 X, Invitrogen) so that cells were 90–95 % confluent on the day of transfection. After 24 h the medium was removed and replaced with DMEM growth medium (16 mL, Invitrogen) containing serum. For each transfection sample DNA-Lipofectamine complexes were prepared as follows: In a sterile 15 mL tube, 16 μg transfer vector, 10.4 μg pMDL/pRRE, 4 μg pRSV-REV and 5.6 μg pVSV-G were diluted in Opti-MEM medium (5 mL). In a separate sterile 15 mL tube, Lipofectamine 2000 (115 μL, Life Technologies) was diluted in Opti-MEM medium (5 mL). Both solutions were incubated for 5 min at room temperature and then combined.
Incubation for 20 min at room temperature allowed DNA-Lipofectamine complexes to form, which were then added dropwise to each plate of HEK293T cells. […]

Non-standard residues stand in square brackets, D forms with d. Residues, ends and D or L forms follow the SMILES beside them. *: point of attachment. 5TAMRA = CN(C)c1ccc2c(c1)Oc1cc(N(C)C)ccc1C21OC(=O)c2cc(C(=O)*)ccc21; Dap(N3) = [N-]=[N+]=NC[C@H](N)C(=O)O; Aha = [N-]=[N+]=NCC[C@H](N)C(=O)O; Ahx = NCCCCCC(=O)O

`CSCC[C@@H]1NC(=O)[C@H](CCCCN)NC(=O)[C@H](CCCCN)NC(=O)[C@@H](NC(=O)[C@@H](NC(=O)CCCCCNC(=O)c2ccc3c(c2)C(=O)OC32c3ccc(N(C)C)cc3Oc3cc(N(C)C)ccc32)[C@@H](C)O)Cn2cc(nn2)CNC(=O)NCc2cn(nn2)C[C@@H](C(=O)N[C@@H](CCCNC(=N)N)C(N)=O)NC(=O)[C@H](CCCNC(=N)N)NC(=O)[C@H](CCCNC(=N)N)NC1=O` [Pep1A]: the Kd (as a rule, the free concentration of one partner at which half of the binding sites on the other are occupied at equilibrium, for simple one-to-one binding) at mImportin α1 ΔIBB came out at 95.9 ± 27.3 µM.
As to `CSCC[C@@H]1NC(=O)[C@H](CCCCN)NC(=O)[C@H](CCCCN)NC(=O)[C@@H](NC(=O)[C@@H](NC(=O)CCCCCNC(=O)c2ccc3c(c2)C(=O)OC32c3ccc(N(C)C)cc3Oc3cc(N(C)C)ccc32)[C@@H](C)O)Cn2cc(nn2)CCNC(=O)NCCc2cn(nn2)C[C@@H](C(=O)N[C@@H](CCCNC(=N)N)C(N)=O)NC(=O)[C@H](CCCNC(=N)N)NC(=O)[C@H](CCCNC(=N)N)NC1=O` [Pep1B], the cell permeability entry in the data set with JHOC9 cells is “retained their cell permeability”. For the same compound, the Kd at mImportin α1 ΔIBB was 48.2 ± 4.88 µM.
Regarding `CSCC[C@@H]1NC(=O)[C@H](CCCCN)NC(=O)[C@H](CCCCN)NC(=O)[C@@H](NC(=O)[C@@H](NC(=O)CCCCCNC(=O)c2ccc3c(c2)C(=O)OC32c3ccc(N(C)C)cc3Oc3cc(N(C)C)ccc32)[C@@H](C)O)Cn2cc(nn2)CCCNC(=O)NCCCc2cn(nn2)C[C@@H](C(=O)N[C@@H](CCCNC(=N)N)C(N)=O)NC(=O)[C@H](CCCNC(=N)N)NC(=O)[C@H](CCCNC(=N)N)NC1=O` [Pep1C], on mImportin α1 ΔIBB, the dissociation constant Kd was determined as 55.9 ± 2.43 µM.
On to `CSCC[C@H](NC(=O)[C@H](CCCCN)NC(=O)[C@H](CCCCN)NC(=O)[C@H](CN=[N+]=[N-])NC(=O)[C@@H](NC(=O)CCCCCNC(=O)c1ccc2c(c1)C(=O)OC21c2ccc(N(C)C)cc2Oc2cc(N(C)C)ccc21)[C@@H](C)O)C(=O)N[C@@H](CCCNC(=N)N)C(=O)N[C@@H](CCCNC(=N)N)C(=O)N[C@@H](CN=[N+]=[N-])C(=O)N[C@@H](CCCNC(=N)N)C(N)=O` [Pep1] ({5TAMRA-Ahx}-T[Dap(N3)]KKMRR[Dap(N3)]R-NH2), for which, in the data set on JHOC9 cells, the cell permeability result is given as “good cell permeability”. Moreover, the Kd on mImportin α1 ΔIBB stood at 2.06 ± 0.07 µM.
For `CSCC[C@@H]1NC(=O)[C@H](CCCCN)NC(=O)[C@H](CCCCN)NC(=O)[C@@H](NC(=O)[C@@H](NC(=O)CCCCCNC(=O)c2ccc3c(c2)C(=O)OC32c3ccc(N(C)C)cc3Oc3cc(N(C)C)ccc32)[C@@H](C)O)CCn2cc(nn2)CNC(=O)NCc2cn(nn2)CC[C@@H](C(=O)N[C@@H](CCCNC(=N)N)C(N)=O)NC(=O)[C@H](CCCNC(=N)N)NC(=O)[C@H](CCCNC(=N)N)NC1=O` [Pep2A], in that order: “retained their cell permeability” and 4.54 µM.
With `CSCC[C@H](NC(=O)[C@H](CCCCN)NC(=O)[C@H](CCCCN)NC(=O)[C@H](CCN=[N+]=[N-])NC(=O)[C@@H](NC(=O)CCCCCNC(=O)c1ccc2c(c1)C(=O)OC21c2ccc(N(C)C)cc2Oc2cc(N(C)C)ccc21)[C@@H](C)O)C(=O)N[C@@H](CCCNC(=N)N)C(=O)N[C@@H](CCCNC(=N)N)C(=O)N[C@@H](CCN=[N+]=[N-])C(=O)N[C@@H](CCCNC(=N)N)C(N)=O` [Pep2] ({5TAMRA-Ahx}-T[Aha]KKMRR[Aha]R-NH2), the cell permeability entry in the data set with JHOC9 cells is recorded as “good cell permeability”. Besides, the Kd at mImportin α1 ΔIBB is 6.84 ± 0.26 µM.
With `CN(C)c1ccc2c(-c3ccc(C(=O)O)cc3C(=O)[O-])c3ccc(N(C)C)cc3[o+]c2c1` [TAMRA-5, 5-CARBOXYTETRAMETHYLRHODAMINE, reference compound], the Kd at mImportin α1 ΔIBB is about 122 µM.
